Measurements published in patent US8809377B2, “Deubiquitinase inhibitors and methods for use of the same” (The Regents of the University of Michigan, priority 2010, dated 2014).

Assays:
[1] = test system: DUB activity; test: Western / HA-UbVS labeling of DUB activity in intact cells; type: cell-based; details: H929, WDT2, Z138 cell lines
Experimental: (§1) To assay for changes in activity of cellular deubiquitinase enzymes, leukemic cells were lysed in DUB buffer (50 mM Tris pH 7.4, 5 mM MgCl2, 150 mM NaCl) for 10 min at 4° C. The lysates were centrifuged at 20,000 RCF for 10 min and the supernatant was used for DUB labeling. Equal amounts of lysate were incubated with 500 ng of HA-UbVs for 1 hr at room temperature, followed by boiling in reducing sample buffer and resolving by SDS-PAGE. HA immunoblotting was used to detect DUB labeling.
as §1, with “Z138 and HEK293” for “leukemic”, “RFC” for “RCF”, “SDS-PAGE. After protein transfer to nitrocellulose membranes,” for “SDS-PAGE.”
(§2) Cancer Res, 2010. 70(22): p. […] Blood, 2011. 117(11): p. […] Biochem Pharmacol, 2011. 82(4): p. […] Blood, 2007. 109(8): p. 3470-8.

[2] = test system: USP9X; test: Western / HA-UbVS labeling of USP9X in intact cells or lysates; type: cell-based; details: for Western Targets: USP9X: H929, WDT2, Z138 cell lines; for Usp9x activity (HA-UbVs labeling): CML cells treated for 4 hours
[3] = target: T1, USP9X-UCH (Homo sapiens, UniProt Q93008); type: biochemical; details: isolated Usp9x-UCH domain enzyme preparation
T1 sequence (Q93008 1557-1956 limits assumed): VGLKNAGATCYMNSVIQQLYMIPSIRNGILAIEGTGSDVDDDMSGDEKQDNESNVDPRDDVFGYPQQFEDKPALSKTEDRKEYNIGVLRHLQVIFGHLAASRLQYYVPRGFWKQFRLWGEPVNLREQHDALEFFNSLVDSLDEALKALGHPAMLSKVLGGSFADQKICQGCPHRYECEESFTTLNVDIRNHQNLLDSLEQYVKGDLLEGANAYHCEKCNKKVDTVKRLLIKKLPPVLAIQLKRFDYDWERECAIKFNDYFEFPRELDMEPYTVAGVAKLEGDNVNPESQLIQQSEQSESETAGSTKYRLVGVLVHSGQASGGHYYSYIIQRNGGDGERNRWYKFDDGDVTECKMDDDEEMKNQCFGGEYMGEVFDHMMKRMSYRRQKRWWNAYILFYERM
Experimental: Purified DUBs at optimal concentrations (USPS; 20 nM, UCH-L1; 20 nM, UCH-L3; 5 nM, USP9x; immunoprecipitated from 500 μg Z138 cell lysate) were incubated in DUB buffer containing WP1130, vehicle alone (DMSO) or 1 mM NEM (positive control for DUB inhibition) in a 100 μL reaction volume for 30 min. The reaction was initiated by the addition of 500 nM Ub-AMC and the release of AMC-fluorescence was recorded at ex/em 380/480 using a spectrofluorometer.
as §2

[4] = test system: Murine norovirus (MNV); test: Murine norovirus plaque assay; type: cell-based; details: Norwalk virus, RAW264.7, MNV, murine macrophages (RAW264.7 or bone marrow derived), 5 μM, 30 min pre-treatment, 8-12 hr; read-out: Log inhibition by plaque assay
Experimental: Viral titers were determined by plaque assay.
Cells were treated with IFN-β as a positive anti-viral control.

[5] = test system: Z138; test: MTT cell growth, survival and apoptosis; details: Z138 cell line
[6] = test system: cellular DUB activity; test: DUB activity of lysates from treated cells (Ub-AMC, Ub chain disassembly); type: cell-based; parameters: suppression of cellular DUB activity (ubiquitin-AMC): dose or concentration left out as unconfirmed
Experimental: Cells were lysed in ice cold DUB buffer containing 50 mM Tris-HCl, pH 7.5, 0.5% NP-40, 5 mM MgCl2, 150 mM NaCl and 1 mM phenylmethylsulfonylfluoride. Briefly, 5 μg of clarified lysate from untreated or treated cells was incubated with 500 nM Ub-AMC in a 100 μL reaction volume at 37° C. and the release of AMC fluorescence was recorded at ex/em 380/480 using a spectrofluorometer. USP9x was immunoprecipitated from 500 μg of cell lysate and incubated in DUB buffer containing NEM, WP1130 or DMSO in a 100 μL reaction volume for 30 min. The reaction was initiated by the addition of 500 nM Ub-AMC and the release of AMC-fluorescence was recorded.
In vitro disassembly of purified polyubiquitin chains (K-48/K-63 linked) was performed as previously described. Five μg of lysate from untreated or WP1130 treated cells were prepared in DUB buffer and incubated with K48- or K-63 linked chains (1 μg) for 10 min at 37° C. The extent of chain disassembly was assessed by ubiquitin immunoblotting.
Inhibition of cellular deubiquitinases could lead to an increase in high molecular weight ubiquitinated proteins in the absence of proteasome inhibition. […] To directly assess the impact of WP1130 on DUB activity in treated cells, cell lysates from control and treated cells were incubated with ubiquitin-AMC and fluorescence generated as a consequence of substrate cleavage was measured as an indicator of DUB activity.
The effect of WP1130 treatment on in vitro deubiquitination/disassembly of purified K48-linked or K63-linked polyubiquitin chains was evaluated. Lysates from WP1130 treated (2 hr) or untreated cells were incubated with 1 μg of unanchored polyubiquitin chains for 5, 10 and 15 min at 37° C.

AMC Assay on USP9X-UCH Activity relative to WP1130 [3]	SMILES	log reduction at 5 µM [4]	MTT Activity relative to WP1130 [5]	other results
–	CCCC(NC(=O)/C(C#N)=C/c1cccc(Br)n1)c1ccc(OC)cc1 (stereo not drawn) [Compound 8, (E)-3-(6-bromopyridin-2-yl)-2-cyano-N-(1-(4-methoxyphenyl)butyl)acrylamide]	–	–	Western Targets: DUB activity [1]: USP9X and DUB activity: no effect; Western Targets: USP9X [2]: USP9X and DUB activity: no effect
Same	CCCC(NC(=O)/C(C#N)=C/c1cccc(Br)n1)c1ccc(OCCN(CC)CC)cc1 (stereo not drawn) [Compound 33, (E)-3-(6-Bromopyridin-2-yl)-2-cyano-N-(1-(4-(2-(diethylamino)ethoxy)phenyl)butyl)acrylamide]	2 to 2.5	Less sensitive	–
–	Cc1cnc(Nc2ccc(N3CCN(C)CC3)cc2)nc1Nc1cccc(S(=O)(=O)NC(C)(C)C)c1 [TG101209, reference compound]	–	–	Usp9x activity (HA-UbVs labeling) [2]: none of the kinase inhibitors examined had significant Usp9x inhibitory activity
Inconclusive	CCCC(NC(=O)/C(C#N)=C/c1ncc[nH]1)c1ccc(OCCN(C)C)cc1 (stereo not drawn) [Compound 38, (E)-2-Cyano-N-(1-(4-(2-(dimethylamino)ethoxy)phenyl)butyl)-3-(1H-imidazol-2-yl)acrylamide]	0.5	Less sensitive	–
–	CCN1C(=O)C=CC1=O [NEM, N-ethylmaleimide, reference compound]	–	–	Ub-AMC hydrolyzing activity of lysates from treated cells ([6]; CML cells, WP1130 1-8 hours): completely blocked substrate hydrolysis; suppression of cellular DUB activity (ubiquitin-AMC) ([6]; Z138 cells, within 1 hr): 80%
Less sensitive	CCC[C@H](NC(=O)/C(C#N)=C/c1cccc(F)n1)c1ccccc1 [Compound 40, (S,E)-2-Cyano-3-(6-fluoropyridin-2-yl)-N-(1-phenylbutyl)acrylamide]	2	Less sensitive	–
No inhibition	CCCC(NC(=O)/C(C#N)=C/c1cccc(F)n1)c1ccc(OCCN2CCOCC2)cc1 (stereo not drawn) [Compound 37, (E)-2-Cyano-3-(6-fluoropyridin-2-yl)-N-(1-(4-(2-morpholinoethoxy)phenyl)butyl)acrylamide]	1	Less sensitive	–
No inhibition	CCCC(NC(=O)/C(C#N)=C/c1cccc(F)n1)c1ccc(OCCN(CC)CC)cc1 (stereo not drawn) [Compound 34, (E)-2-Cyano-N-(1-(4-(2-(diethylamino)ethoxy)phenyl)butyl)-3-(6-fluoropyridin-2-yl)acrylamide]	2	Less sensitive	–
–	Cc1ccc(NC(=O)c2ccc(CN3CCN(C)CC3)cc2)cc1Nc1nccc(-c2cccnc2)n1 [imatinib, reference compound]	–	–	Usp9x activity (HA-UbVs labeling) [2]: none of the kinase inhibitors examined had significant Usp9x inhibitory activity
Inconclusive	CCC[C@H](NC(=O)/C(C#N)=C/c1cccc(Cl)n1)c1ccccc1 [Compound 41, (S,E)-2-Cyano-3-(6-chloropyridin-2-yl)-N-(1-phenylbutyl)acrylamide]	2	Less sensitive	–
–	CCCC(NC(=O)/C(C#N)=C/c1ncc[nH]1)c1ccc(OCOC)cc1 (stereo not drawn) [Compound 10, (E)-2-Cyano-3-(1H-imidazol-2-yl)-N-(1-(4-(methoxymethoxy)phenyl)butyl)acrylamide]	–	–	Western Targets: DUB activity [1]: USP9X and DUB activity: no effect; Western Targets: USP9X [2]: USP9X and DUB activity: no effect
–	CCCC(NC(=O)/C=C/c1cccc(Br)n1)c1ccc(OCCOCCOCCNC(=O)CCCC[C@@H]2SC[C@@H]3NC(=O)N[C@@H]32)cc1 (stereo partly drawn) [Compound 51, N-(2-(2-(2-(4-(1-((E)-3-(6-Bromopyridin-2-yl)acrylamido)butyl)phenoxy)ethoxy)ethoxy)ethyl)-5-((3aS,4S,6aR)-2-oxohexahydro-1H-thieno[3,4-d]imidazol-4-yl)pentanamide]	0	–	–
No inhibition	CCCC(NC(=O)/C(C#N)=C/c1cccc(F)n1)c1ccc(OCCN2CCCC2)cc1 (stereo not drawn) [Compound 36, (E)-2-Cyano-3-(6-fluoropyridin-2-yl)-N-(1-(4-(2-(pyrrolidin-1-yl)ethoxy)phenyl)butyl)acrylamide]	2	Less sensitive	–
–	CCCC(NC(=O)/C(C#N)=C/c1cccc(Br)n1)c1ccc(OCCOCCOCCNC(=O)CCCC[C@@H]2SC[C@@H]3NC(=O)N[C@@H]32)cc1 (stereo partly drawn) [Compound 48, N-(2-(2-(2-(4-(1-((E)-3-(6-Bromopyridin-2-yl)-2-cyanoacrylamido)butyl)phenoxy)ethoxy)ethoxy)ethyl)-5-((3aS,4S,6aR)-2-oxohexahydro-1H-thieno[3,4-d]imidazol-4-yl)pentanamide]	1.5	–	–
–	CCCC(NC(=O)/C(C#N)=C/c1ncc[nH]1)c1ccc(O)cc1 (stereo not drawn) [Compound 11, (E)-2-Cyano-N-(1-(4-hydroxyphenyl)butyl)-3-(1H-imidazol-2-yl)acrylamide]	–	–	Western Targets: DUB activity [1]: USP9X and DUB activity: no effect; Western Targets: USP9X [2]: USP9X and DUB activity: no effect
Less sensitive	CCC[C@H](NC(=O)/C(C#N)=C/c1ncc[nH]1)c1ccccc1 [Compound 42, (S,E)-2-Cyano-3-(1H-imidazol-2-yl)-N-(1-phenylbutyl)acrylamide]	0.5	Less sensitive	–
Inconclusive	CCCC(NC(=O)/C(C#N)=C/c1cccc(Br)n1)c1ccc(OCCN(C)C)cc1 (stereo not drawn) [Compound 35, (E)-3-(6-Bromopyridin-2-yl)-2-cyano-N-(1-(4-(2-(dimethylamino)ethoxy)phenyl)butyl)acrylamide]	2	Less sensitive	–
